Positions of bridges follow the written chain, without caps; N, C: chain ends. Non-standard residues stand in square brackets, D forms with d. Residues, ends and D or L forms follow the SMILES beside them. Chains are numbered I, II in the order given. Nva = CCC[C@H](N)C(=O)O
Key:
[1] = molecular target: T1, Neuropeptide Y receptor type 2 (Homo sapiens, UniProt P49146); assay: Compound was tested for the displacement of [125I]-PYY(3-36) (SK-N-BE2) from Neuropeptide Y receptor type 2 in the membranes prepared from cells; assay type: cell membranes
T1 sequence (P49146 whole entry): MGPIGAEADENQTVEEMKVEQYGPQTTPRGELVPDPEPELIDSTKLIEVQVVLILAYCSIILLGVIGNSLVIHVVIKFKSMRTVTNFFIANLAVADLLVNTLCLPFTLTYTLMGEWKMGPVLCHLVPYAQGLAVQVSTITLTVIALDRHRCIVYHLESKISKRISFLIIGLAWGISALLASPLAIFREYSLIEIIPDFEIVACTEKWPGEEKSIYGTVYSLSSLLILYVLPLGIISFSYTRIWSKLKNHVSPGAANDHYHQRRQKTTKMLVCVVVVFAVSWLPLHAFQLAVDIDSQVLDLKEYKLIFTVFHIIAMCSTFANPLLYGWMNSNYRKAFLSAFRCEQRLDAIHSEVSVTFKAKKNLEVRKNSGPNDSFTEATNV

[2] = molecular target: T2, Neuropeptide Y receptor type 1 (Homo sapiens, UniProt P25929); assay: Compound was tested for the displacement of [125I]-PYY (SK-N-MC) from Neuropeptide Y receptor type 1 in the membranes prepared from cells; assay type: cell membranes
T2 sequence (P25929 whole entry): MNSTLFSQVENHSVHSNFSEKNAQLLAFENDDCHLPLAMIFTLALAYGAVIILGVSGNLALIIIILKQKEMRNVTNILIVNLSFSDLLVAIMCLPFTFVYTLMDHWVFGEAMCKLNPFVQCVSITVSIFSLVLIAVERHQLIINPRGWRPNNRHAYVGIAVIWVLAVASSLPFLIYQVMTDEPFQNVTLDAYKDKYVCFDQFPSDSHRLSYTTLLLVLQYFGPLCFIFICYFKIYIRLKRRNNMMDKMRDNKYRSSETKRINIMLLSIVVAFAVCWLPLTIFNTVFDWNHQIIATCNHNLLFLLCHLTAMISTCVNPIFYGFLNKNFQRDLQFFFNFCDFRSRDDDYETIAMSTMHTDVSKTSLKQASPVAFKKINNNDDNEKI

Structure (SMILES) | Ki [1] [nM] | Ki [2] [nM]
CCC[C@H](NC(=O)[C@H](CCCN=C(N)N)NC(=O)[C@@H](Cc1c[nH]c2ccccc12)NC(=O)[C@H](CSSC[C@H](NC(=O)[C@H](CC(C)C)NC(=O)[C@H](Cc1c[nH]c2ccccc12)NC(=O)[C@@H](N)Cc1ccc(O)cc1)C(=O)N[C@H](Cc1c[nH]c2ccccc12)C(=O)N[C@@H](CCCN=C(N)N)C(=O)N[C@@H](CCC)C(=O)N[C@@H](CCCN=C(N)N)C(=O)N[C@@H](Cc1ccc(O)cc1)C(N)=O)NC(=O)[C@H](CC(C)C)NC(=O)[C@H](Cc1c[nH]c2ccccc12)NC(=O)[C@@H](N)Cc1ccc(O)cc1)C(=O)N[C@@H](CCCN=C(N)N)C(=O)N[C@@H](Cc1ccc(O)cc1)C(N)=O | 704 | 143
CCC[C@H](NC(=O)[C@H](CCCN=C(N)N)NC(=O)[C@H](Cc1c[nH]c2ccccc12)NC(=O)[C@H](CSSC[C@H](NC(=O)[C@H](CC(C)C)NC(=O)[C@H](Cc1c[nH]c2ccccc12)NC(=O)[C@@H](N)Cc1ccc(O)cc1)C(=O)N[C@@H](Cc1c[nH]c2ccccc12)C(=O)N[C@@H](CCCN=C(N)N)C(=O)N[C@@H](CCC)C(=O)N[C@@H](CCCN=C(N)N)C(=O)N[C@@H](Cc1ccc(O)cc1)C(N)=O)NC(=O)[C@H](CC(C)C)NC(=O)[C@H](Cc1c[nH]c2ccccc12)NC(=O)[C@@H](N)Cc1ccc(O)cc1)C(=O)N[C@@H](CCCN=C(N)N)C(=O)N[C@@H](Cc1ccc(O)cc1)C(N)=O | 621 | 93
CCC[C@H](NC(=O)[C@H](CCCNC(=N)N)NC(=O)[C@H](Cc1c[nH]c2ccccc12)NC(=O)[C@@H](N)CSSC[C@H](N)C(=O)N[C@@H](Cc1c[nH]c2ccccc12)C(=O)N[C@@H](CCCNC(=N)N)C(=O)N[C@@H](CCC)C(=O)N[C@@H](CCCNC(=N)N)C(=O)N[C@@H](Cc1ccc(O)cc1)C(N)=O)C(=O)N[C@@H](CCCNC(=N)N)C(=O)N[C@@H](Cc1ccc(O)cc1)C(N)=O (I: H-CWR[Nva]RY-NH2 / II: H-CWR[Nva]RY-NH2; disulfide I:1-II:1) | > 10000 | 46
CCC[C@H](NC(=O)[C@H](CCCN=C(N)N)NC(=O)[C@@H](NC(=O)[C@H](CSSC[C@H](NC(=O)[C@H](CC(C)C)NC(=O)[C@@H](NC(=O)[C@@H](N)Cc1ccc(O)cc1)[C@@H](C)CC)C(=O)N[C@H](C(=O)N[C@@H](CCCN=C(N)N)C(=O)N[C@@H](CCC)C(=O)N[C@@H](CCCN=C(N)N)C(=O)N[C@@H](Cc1ccc(O)cc1)C(N)=O)[C@@H](C)O)NC(=O)[C@H](CC(C)C)NC(=O)[C@@H](NC(=O)[C@@H](N)Cc1ccc(O)cc1)[C@@H](C)CC)[C@@H](C)O)C(=O)N[C@@H](CCCN=C(N)N)C(=O)N[C@@H](Cc1ccc(O)cc1)C(N)=O (I: H-YILCTR[Nva]RY-NH2 / II: H-YILCTR[Nva]RY-NH2; disulfide I:4-II:4) | 3980 | 49
CCC[C@H](NC(=O)[C@H](CCCNC(=N)N)NC(=O)[C@H](Cc1c[nH]c2ccccc12)NC(=O)[C@H](CSSC[C@H](NC(=O)[C@H](CC(C)C)NC(=O)[C@@H](NC(=O)[C@@H](N)Cc1ccc(O)cc1)[C@@H](C)CC)C(=O)N[C@@H](Cc1c[nH]c2ccccc12)C(=O)N[C@@H](CCCNC(=N)N)C(=O)N[C@@H](CCC)C(=O)N[C@@H](CCCNC(=N)N)C(=O)N[C@@H](Cc1ccc(O)cc1)C(N)=O)NC(=O)[C@H](CC(C)C)NC(=O)[C@@H](NC(=O)[C@@H](N)Cc1ccc(O)cc1)[C@@H](C)CC)C(=O)N[C@@H](CCCNC(=N)N)C(=O)N[C@@H](Cc1ccc(O)cc1)C(N)=O (I: H-YILCWR[Nva]RY-NH2 / II: H-YILCWR[Nva]RY-NH2; disulfide I:4-II:4) | 988 | 95
CCC[C@H](NC(=O)[C@H](CCCN=C(N)N)NC(=O)[C@@H](NC(=O)[C@H](CSSC[C@H](NC(=O)[C@H](CC(C)C)NC(=O)[C@H](CC(N)=O)NC(=O)[C@@H](NC(=O)[C@@H](N)Cc1ccc(O)cc1)[C@@H](C)CC)C(=O)N[C@H](C(=O)N[C@@H](CCCN=C(N)N)C(=O)N[C@@H](CCC)C(=O)N[C@@H](CCCN=C(N)N)C(=O)N[C@@H](Cc1ccc(O)cc1)C(N)=O)[C@@H](C)O)NC(=O)[C@H](CC(C)C)NC(=O)[C@H](CC(N)=O)NC(=O)[C@@H](NC(=O)[C@@H](N)Cc1ccc(O)cc1)[C@@H](C)CC)[C@@H](C)O)C(=O)N[C@@H](CCCN=C(N)N)C(=O)N[C@@H](Cc1ccc(O)cc1)C(N)=O (I: H-YINLCTR[Nva]RY-NH2 / II: H-YINLCTR[Nva]RY-NH2; disulfide I:5-II:5) | 2080 | 36
CCC[C@H](NC(=O)[C@H](CCCN=C(N)N)NC(=O)[C@H](Cc1c[nH]c2ccccc12)NC(=O)[C@H](CSSC[C@H](NC(=O)[C@H](CC(C)C)NC(=O)[C@H](CC(N)=O)NC(=O)[C@@H](NC(=O)[C@@H](N)Cc1ccc(O)cc1)[C@@H](C)CC)C(=O)N[C@@H](Cc1c[nH]c2ccccc12)C(=O)N[C@@H](CCCN=C(N)N)C(=O)N[C@@H](CCC)C(=O)N[C@@H](CCCN=C(N)N)C(=O)N[C@@H](Cc1ccc(O)cc1)C(N)=O)NC(=O)[C@H](CC(C)C)NC(=O)[C@H](CC(N)=O)NC(=O)[C@@H](NC(=O)[C@@H](N)Cc1ccc(O)cc1)[C@@H](C)CC)C(=O)N[C@@H](CCCN=C(N)N)C(=O)N[C@@H](Cc1ccc(O)cc1)C(N)=O (I: H-YINLCWR[Nva]RY-NH2 / II: H-YINLCWR[Nva]RY-NH2; disulfide I:5-II:5) | 3410 | 44
